Measurements published in patent US12459951B2, “Compounds that interact with RAS superfamily proteins for treatment of cancers, inflammatory diseases, rasopathies, and fibrotic disease” (SHY Therapeutics, LLC, priority 2022, dated 2025).

Assays:
IL6 = test: IL-6 Quantification Assay (ELISA), LPS-stimulated RAW 264.7; assay type: cell-based; set-up: inhibition: dose or concentration left out as unconfirmed; settings: Mus musculus, RAW264.7; read-out: IL-6: % inh.
Erk1/2 phosphorylation = test: Erk1/2 Phosphorylation Assay (western blot), Panc-1; assay type: cell-based, human; settings: at 10 μM, * = activation
How it was run: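 Phospho-Erk1/2 (Thr202/Tyr204) was detected by western blot in lysates of Panc-1 cells (KRas G12D). These had 6 h, 37° C exposure to 10 μM compound or a dilution series for IC50, in 0.3% DMSO. Cells were either starved overnight in 0.5% FBS with a 15-min 1.5 ng/ml EGF pulse, or kept unstimulated in 10% FBS.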

MAPK p38 phosphorylation = test: MAPK p38 Activation Assay (western blot), Panc-1; assay type: cell-based, human; settings: at 10 μM, Panc-1 pancreatic cancer cell line; starred symbols = activation
How it was run: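 Panc-1 cells (KRas G12D) were treated with compound for 6 h at 37 °C, at 10 μM or as serial dilutions for IC50, with 0.3% DMSO. Method 1 used overnight serum-starved cells (0.5% FBS) stimulated with 1.5 ng/ml EGF for 15 min; Method 2 used unstimulated cells in 10% FBS. Phospho-p38 (Thr180/Tyr182) was detected by western blot.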

SMILES | inhibition (IL6) | % inh of Erk1/2 phosphorylation in Panc-1 (Erk1/2 phosphorylation) | % inh of MAPK p38 in Panc-1 (MAPK p38 phosphorylation)
COc1ccc(Nc2nc(-c3nccn3C)nn3cc(-c4ccn(C(C)C)n4)c(C)c23)cn1 [Compound 71, 6-(1-Isopropyl-1H-pyrazol-3-yl)-N-(6-methoxypyridin-3-yl)-5-methyl-2-(1-methyl-1H-imidazol-2-yl)pyrrolo[2,1-f][1,2,4]triazin-4-amine] | 0% | D* (85-100% activation) | H* (H* ≥ 100% activation)
COc1cccc(-c2cn3nc(-c4nccn4C)nc(N[C@H]4C[C@H](OC)C4)c3c2-c2ccccc2)c1F [Compound 42, 6-(2-Fluoro-3-methoxyphenyl)-N-((1r,3r)-3-methoxycyclobutyl)-2-(1-methyl-1H-imidazol-2-yl)-5-phenylpyrrolo[2,1-f][1,2,4]triazin-4-amine] | 75 to 100% | D (85-100% inhibition) | H* (H* ≥ 100% activation)
Cc1c(-c2ccn(C(C)C)n2)cn2nc(-c3nccn3C)nc(Nc3ccccn3)c12 [Compound 57, 6-(1-Isopropyl-1H-pyrazol-3-yl)-5-methyl-2-(1-methyl-1H-imidazol-2-yl)-N-(pyridin-2-yl)pyrrolo[2,1-f][1,2,4]triazin-4-amine] | 1 to 24% | A* (1-25% activation) | E* (E* = 1-30% activation)
COc1cccc(Nc2nc(-c3nccn3C)nn3cc(-c4ccn(C(C)C)n4)c(-c4ccccc4)c23)n1 [Compound 23, 6-(1-Isopropyl-1H-pyrazol-3-yl)-N-(6-methoxypyridin-2-yl)-2-(1-methyl-1H-imidazol-2-yl)-5-phenylpyrrolo[2,1-f][1,2,4]triazin-4-amine] | 75 to 100% | D (85-100% inhibition) | H* (H* ≥ 100% activation)
COC1CCCN(c2nc(-c3ccccn3)nn3cc(-c4ccn(C(C)C)n4)c(-c4ccccc4)c23)C1 (racemic) [Compound 27, rac 6-(1-Isopropyl-1H-pyrazol-3-yl)-4-(3-methoxypiperidin-1-yl)-5-phenyl-2-(pyridin-2-yl)pyrrolo[2,1-f][1,2,4]triazine] | 75 to 100% | 0 (0% inhibition) | H* (H* ≥ 100% activation)
Cc1c(-c2ccn(C(C)C)n2)cn2nc(-c3nccn3C)nc(Nc3nnc(C4CC4)o3)c12 [Compound 67, 5-Cyclopropyl-N-(6-(1-isopropyl-1H-pyrazol-3-yl)-5-methyl-2-(1-methyl-1H-imidazol-2-yl)pyrrolo[2,1-f][1,2,4]triazin-4-yl)-1,3,4-oxadiazol-2-amine] | 75 to 100% | D (85-100% inhibition) | H* (H* ≥ 100% activation)
COc1cccc(-c2cn3nc(-c4nccn4C)nc(N[C@H]4C[C@H](OC)C4)c3c2-c2ccccc2)c1Cl [Compound 32, 6-(2-Chloro-3-methoxyphenyl)-N-((1r,3r)-3-methoxycyclobutyl)-2-(1-methyl-1H-imidazol-2-yl)-5-phenylpyrrolo[2,1-f][1,2,4]triazin-4-amine] | 75 to 100% | D (85-100% inhibition) | H (H = 100% inhibition)
COc1cccc(-c2cn3nc(-c4nccn4C)nc(N[C@H]4C[C@H](OC)C4)c3c2-c2ccn(C)n2)c1F [Compound 47, 6-(2-Fluoro-3-methoxyphenyl)-N-((1r,3r)-3-methoxycyclobutyl)-2-(1-methyl-1H-imidazol-2-yl)-5-(1-methyl-1H-pyrazol-3-yl)pyrrolo[2,1-f][1,2,4]triazin-4-amine] | 0% | C (50-84% inhibition) | F (F = 31-74% inhibition)
Cc1c(-c2ccn(C(C)C)n2)cn2nc(-c3nccn3C)nc(Nc3cnccn3)c12 [Compound 62, 6-(1-Isopropyl-1H-pyrazol-3-yl)-5-methyl-2-(1-methyl-1H-imidazol-2-yl)-N-(pyrazin-2-yl)pyrrolo[2,1-f][1,2,4]triazin-4-amine] | 25 to 49% | A (1-25% inhibition) | H* (H* ≥ 100% activation)
COc1cccc(-c2cn3nc(-c4nccn4C)nc(N[C@@H]4CC[C@@H](OC)C4)c3c2-c2ccccn2)c1F (racemic) [Compound 46, rac 6-(2-Fluoro-3-methoxyphenyl)-N-((1R,3R)-3-methoxycyclopentyl)-2-(1-methyl-1H-imidazol-2-yl)-5-(pyridin-2-yl)pyrrolo[2,1-f][1,2,4]triazin-4-amine] | 75 to 100% | 0 (0% inhibition) | H (H = 100% inhibition)
Cc1c(-c2ccn(C(C)C)n2)cn2nc(-c3nccn3C)nc(Nc3nnco3)c12 [Compound 59, N-(6-(1-Isopropyl-1H-pyrazol-3-yl)-5-methyl-2-(1-methyl-1H-imidazol-2-yl)pyrrolo[2,1-f][1,2,4]triazin-4-yl)-1,3,4-oxadiazol-2-amine] | 25 to 49% | C (50-84% inhibition) | H* (H* ≥ 100% activation)
Cc1c(-c2ccn(C(C)C)n2)cn2nc(-c3nccn3C)nc(Nc3ccn(C)n3)c12 [Compound 61, 6-(1-Isopropyl-1H-pyrazol-3-yl)-5-methyl-2-(1-methyl-1H-imidazol-2-yl)-N-(1-methyl-1H-pyrazol-3-yl)pyrrolo[2,1-f][1,2,4]triazin-4-amine] | 1 to 24% | A* (1-25% activation) | H* (H* ≥ 100% activation)
Cc1c(-c2ccn(C(C)C)n2)cn2nc(-c3nccn3C)nc(Nc3cc(C4CC4)no3)c12 [Compound 69, 3-Cyclopropyl-N-(6-(1-isopropyl-1H-pyrazol-3-yl)-5-methyl-2-(1-methyl-1H-imidazol-2-yl)pyrrolo[2,1-f][1,2,4]triazin-4-yl)isoxazol-5-amine] | 50 to 74% | D* (85-100% activation) | H* (H* ≥ 100% activation)
